The values that follow come from patent US20150344426A1, “COMPOUNDS AND THERAPEUTIC USES THEREOF” (ALZHEIMER'S INSTITUTE OF AMERICA, INC., priority 2012, published 2015).

Data set [1] in a line: Stability assessment / semi-quantitative hygroscopicity in a relative humidity (RH) chamber. In kind it is physicochemical. The note with it: solid in RH chamber; morphology and parent:prodrug composition. The procedure:
“ND” in Table 2 refers to “No Data”. Purity was determined by HPLC. Melting point was determined by differential scanning calorimetry (“DSC”), and semi-quantitative hygroscopicity was determined in a relative humidity (“RH”) chamber.

The nature of data set [2]: Kinetic solubility (iSol Explorer method). The note with it: system solution buffer (pION), aqueous buffer, kinetic from dmso stock. The class given is physicochemical. How it is done: Kinetic solubility was determined using the iSol Explorer method (pION Inc.; Woburn, Mass.). Certain Example Compounds were dissolved in dimethylsulfoxide (DMSO; >99.9% ACS spectrophotometric grade; Sigma-Aldrich, St. Louis, Mo.) to a concentration of 100 mM. The DMSO stock was diluted 1:100 in system solution buffer (pION Inc. Wobum Mass.) that had been adjusted to the desired pH (5.0, 6.8, and 7.4) with either HCl or NaOH. The diluted samples in the desired buffer were incubated for 15 minutes at room temperature and filtered using 96-well plate with 0.25 mm glass fiber/1.2 μm polyethersulfone filter bottoms (Corning, Inc.; Corning, N.Y.). The filtrate is transferred to a second 96-well plate and read on a SpectraMAX 190 (Molecular Devices; Sunnyvale, Calif.) scanning from 190 to 498 nm. The data are analyzed with Sol Explorer Command version 2.2, (pION Inc. Woburn, Mass.) and the concentration reported in molarity and/or mass per volume.

Data set [3] is described as follows: Stability in mouse plasma. The conditions noted are these: read-out: Mouse Plasma t1/2. The class given is in vitro ADME. The procedure: Relative stability of Example Compound Nos. 1 through 60 in mouse plasma and mouse liver microsomal preparations.
Certain Example Compounds were each added to a final concentration of 1 μM to 1 mL of each of mouse plasma and mouse liver microsomal preparations (with and without 1 mM NADPH). Stability assays were run in duplicate and were sampled at 0, 5, 15, 30, 60 and 120 minutes as follows: one hundred microliter aliquots of samples were removed at the specified sampling times, and the reaction was quenched with 400 μL of acetonitrile.
Samples were analyzed by HPLC-ESI-MS/MS by measuring the peak area of both the starting Example Compound and parent compound (i.e., either Parent Compound A or Parent Compound B) that were created by removal of the Prodrug Moiety (as defined in Section 6 herein).

A short description of data set [4]: Experiment 2: femoral vein samples of rats after IV Parent Compound A. In kind it is in vivo, female Sprague Dawley rats. The conditions noted are these: for [Par. Cmp. A]: listed as Par. Cmp. A. The procedure:
Experiment 2. Three female Sprague Dawley rats (215-250 g, Charles River Laboratories) with a catheter implanted surgically in the femoral vein for blood sampling were used in this study. Parent Compound A, solubilized in 3% DMA, 40% PEG300, 12% ethanol, and 45% water by volume, was administered IV at a dose of 2.5 mg/kg in a volume of 2 mL/kg. Femoral blood samples were collected from each animal at 0.083, 0.25, 0.5, 1, 2, 4, and 8 hours following administration of compound and processed for analysis of Parent Compound A concentration.
Pharmacokinetic parameters estimated for Parent Compound A included the maximum observed drug concentration (Cmax), time of maximum observed drug concentration (Tmax), apparent terminal half-life (t1/2), area under the concentration-time curve from time zero to 8 hours postdose (AUC(0-8)), and area under the concentration-time curve extrapolated to infinity (AUC(0-inf)). The bioavailability (% F) of Parent Compound A in portal vein samples relative to IV administration was also estimated.
Plasma samples were analyzed for Example Compound 35 or Parent Compound A concentration using a LC-MS/MS method. All sample runs met standard acceptance criteria for discovery purposes, and were based on a standard curve containing at least 7 points. At least half of quality control samples at each of the three concentrations tested, and two thirds of the entire quality control sample pool, were within 15% of their theoretical value. The r^2 value for each standard curve was ≧0.99. The quantitation range for the Example Compound 35 and Parent Compound A assays was 1 to 100 ng/mL and 5 to 2,500 ng/mL, respectively, using a 0.05 mL sample volume.
The data were entered into the PK software package WinNonlin® version 5.1.1. A complete data check was conducted to verify the accuracy of data entry.
Pharmacokinetic parameters were estimated on median plasma concentrations using extravascular input (PO). Nominal collection times after administration of compound were used for PK analyses. The use of a non-compartmental model provided an adequate fit of the data. Pharmacokinetic parameters estimated for Parent Compound A included the maximum observed drug concentration (Cmax), time of maximum observed drug concentration (Tmax), apparent terminal half-life (t1/2), apparent volume of distribution (Vz obs), apparent clearance (C1 obs), area under the concentration-time curve from time zero to 8 hours postdose of Example Compound 35 […], and area under the concentration-time curve extrapolated to infinity (AUC(0-inf)). Example Compound 35 was detected in only one 0.25 hour hepatic portal vein sample at 1.29 ng/mL. Any Example Compound 35 present in all of the other samples was below the quantitation limit of 1 ng/mL and pharmacokinetic parameters were not determined for those samples. The median PK parameters estimated for Parent Compound A following portal vein sampling of the oral dose of Example Compound 35 or following femoral vein sampling of the intravenous dose of Parent Compound A are given in the Table 5 below. Individual and median concentration of Parent Compound A and Example Compound 35 in hepatic portal vein following oral administration of Example Compound 35 (20 mg/kg) to rats pursuant to Experiment 1 are shown in Table 6 below. Individual and median plasma concentration of Parent Compound A in femoral vein following IV administration of Parent Compound A (2.5 mg/kg) to rats pursuant to Experiment 2 are shown in Table 7 below. FIG. 5 depicts median concentration of Parent Compound A and Example Compound 35 in hepatic portal vein of rats following a single oral dose of Example Compound 35 (20 mg/kg). FIG. 6 depicts median plasma concentration of Parent Compound A following a single IV dose of Parent Compound A (2.5 mg/kg) to rats. […]

The mark [5] stands for this setting: female, Sprague-Dawley, rat, plasma (femoral vein), Parent Cmpd. A 2.5 mg/kg IV, Femoral Vein, median.

Where “and” joins values, the source holds several entries; their conditions need not be identical. Identical values can stand only once. Like-named read-outs stand apart in the source and are kept apart here.

Take `O=C(NCc1ccc[n+](COC(=O)c2ccccc2)c1)Nc1ccc(OCCc2ccccc2-c2ccccc2)cc1` [Example 35, 1-[(Benzoyloxy)methyl]-3-{[({4-[2-(biphenyl-2-yl)ethoxy]phenyl}carbamoyl)amino]methyl} pyridinium]: the “Stability at 40° C. and 75% RH” value in data set [1] is on record as “No change in morphology stopped at 13 days, only prodrug observed”. Moreover, the “Stability at 60° C. and 75% RH” value in data set [1] is “Deliquesced at 7 days, approx 30:70 parent to prodrug observed”. Also, the solubility (usually the dissolved amount per volume that the medium holds) at 15 min is 402 µM in data set [2] (pH 5.0, 15 minutes at room temperature); 404 µM in data set [2] (pH 6.8, 15 minutes at room temperature); 433 µM in data set [2] (pH 7.4, 15 minutes at room temperature). Besides, the half-life at 1 µM in data set [3] stood at 1.29 h.

Take `O=C(NCc1cccnc1)Nc1ccc(OCCc2ccccc2-c2ccccc2)cc1` [Parent Compound A, 1-{4-[2-(Biphenyl-2-yl)ethoxy]phenyl}-3-(pyridin-3-ylmethyl)urea]: in data set [4] (female, Sprague-Dawley, rat, plasma (femoral vein), iv, 2.5 mg/kg, femoral vein plasma, 0.083 hr after IV Parent Compound A 2.5 mg/kg, read-out: Median [Par. Cmp. A]), the concentration at 0.083 h came out at 1920 ng/mL. Besides, the concentration at 0.25 h in data set [4] (female, Sprague-Dawley, rat, plasma (femoral vein), iv, 2.5 mg/kg, femoral vein plasma, 0.25 hr after IV Parent Compound A 2.5 mg/kg, individual rats, read-out: [Par. Cmp. A]) stood at 1610 ng/mL; in data set [4] (female, Sprague-Dawley, rat, plasma (femoral vein), iv, 2.5 mg/kg, femoral vein plasma, 0.25 hr after IV Parent Compound A 2.5 mg/kg, read-out: Median [Par. Cmp. A]), 1130 ng/mL. Moreover, the concentration at 0.5 h worked out at 568 ng/mL in data set [4] (female, Sprague-Dawley, rat, plasma (femoral vein), iv, 2.5 mg/kg, femoral vein plasma, 0.5 hr after IV Parent Compound A 2.5 mg/kg, individual rats, read-out: [Par. Cmp. A]) and 720 ng/mL in data set [4] (female, Sprague-Dawley, rat, plasma (femoral vein), iv, 2.5 mg/kg, femoral vein plasma, 0.5 hr after IV Parent Compound A 2.5 mg/kg, read-out: Median [Par. Cmp. A]). For the same compound, the concentration at 1 h in data set [4] (female, Sprague-Dawley, rat, plasma (femoral vein), iv, 2.5 mg/kg, femoral vein plasma, 1 hr after IV Parent Compound A 2.5 mg/kg, individual rats, read-out: [Par. Cmp. A]) came to 343 ng/mL; in data set [4] (female, Sprague-Dawley, rat, plasma (femoral vein), iv, 2.5 mg/kg, femoral vein plasma, 1 hr after IV Parent Compound A 2.5 mg/kg, read-out: Median [Par. Cmp. A]) it was 360 ng/mL. In addition, the concentration at 2 h in data set [4] (female, Sprague-Dawley, rat, plasma (femoral vein), iv, 2.5 mg/kg, femoral vein plasma, 2 hr after IV Parent Compound A 2.5 mg/kg, individual rats, read-out: [Par. Cmp. A]) is 136 ng/mL; in data set [4] (female, Sprague-Dawley, rat, plasma (femoral vein), iv, 2.5 mg/kg, femoral vein plasma, 2 hr after IV Parent Compound A 2.5 mg/kg, read-out: Median [Par. Cmp. A]), 177 ng/mL. Besides, the concentration at 4 h in data set [4] (female, Sprague-Dawley, rat, plasma (femoral vein), iv, 2.5 mg/kg, femoral vein plasma, 4 hr after IV Parent Compound A 2.5 mg/kg, read-out: Median [Par. Cmp. A]) came out at 26.2 ng/mL. The concentration at 8 h in data set [4] (female, Sprague-Dawley, rat, plasma (femoral vein), iv, 2.5 mg/kg, femoral vein plasma, 8 hr after IV Parent Compound A 2.5 mg/kg, individual rats, * = below the quantitation limit of 5 ng/mL, read-out: [Par. Cmp. A]) was found to be 1.98 ng/mL; in data set [4] (female, Sprague-Dawley, rat, plasma (femoral vein), iv, 2.5 mg/kg, femoral vein plasma, 8 hr after IV Parent Compound A 2.5 mg/kg, read-out: Median [Par. Cmp. A]), 2.1 ng/mL. Further, in data set [4] (setting [5]), the AUC(0-inf) (usually total exposure, with the tail of the curve extrapolated) is 1460 ng·h/mL. The maximum concentration (Cmax) (in general, the peak of the concentration-time curve) in data set [4] (setting [5]) was 1920 ng/mL. Further, the Tmax – broadly, the time at which the peak concentration occurs – in data set [4] (setting [5]) stood at 4.2 min. Besides, in data set [4] (setting [5]), the half-life was 1 h. For the same compound, the AUC(0-t) in data set [4] (female, Sprague-Dawley, rat, plasma (femoral vein), Parent Cmpd. A 2.5 mg/kg IV, Femoral Vein, median, read-out: AUC(0-8)) was 1460 ng·h/mL. In addition, the “[Par. Cmp. A]” value is 1,303.7 ng/mL and 2,660.1 ng/mL and 1,924.0 ng/mL in data set [4] (femoral vein plasma, 0.083 hr after IV Parent Compound A 2.5 mg/kg, individual rats, 2.5 mg/kg); 1,131.8 ng/mL and 878.3 ng/mL in data set [4] (femoral vein plasma, 0.25 hr after IV Parent Compound A 2.5 mg/kg, individual rats, 2.5 mg/kg); 1,062.6 ng/mL and 719.5 ng/mL in data set [4] (femoral vein plasma, 0.5 hr after IV Parent Compound A 2.5 mg/kg, individual rats, 2.5 mg/kg); 565.0 ng/mL and 360.4 ng/mL in data set [4] (femoral vein plasma, 1 hr after IV Parent Compound A 2.5 mg/kg, individual rats, 2.5 mg/kg); 268.6 ng/mL and 177.2 ng/mL in data set [4] (femoral vein plasma, 2 hr after IV Parent Compound A 2.5 mg/kg, individual rats, 2.5 mg/kg); 19.7 ng/mL and 39.7 ng/mL and 26.2 ng/mL in data set [4] (femoral vein plasma, 4 hr after IV Parent Compound A 2.5 mg/kg, individual rats, 2.5 mg/kg). In addition, the “[Par. Cmp. A]” value in data set [4] (femoral vein plasma, 8 hr after IV Parent Compound A 2.5 mg/kg, individual rats, * = below the quantitation limit of 5 ng/mL, 2.5 mg/kg) is 2.05* ng/mL and 2.81* ng/mL.
